In patent US8338368B2 (priority 2005, dated 2012):
Read-outs that look alike come from different tables or passages of the source. Ends that are not written are not given here.

Columns and labels:
[1] = biological target: GLP-1 Receptor (Homo sapiens, UniProt P43220); test: cell-based
[2] = biological target: Glucagon Receptor (Homo sapiens, UniProt P47871); test: Functional assay, cAMP synthesis (luciferase reporter), glucagon receptor
[3] = pH 7

Chain of Glucagon Receptor (P47871 26-477): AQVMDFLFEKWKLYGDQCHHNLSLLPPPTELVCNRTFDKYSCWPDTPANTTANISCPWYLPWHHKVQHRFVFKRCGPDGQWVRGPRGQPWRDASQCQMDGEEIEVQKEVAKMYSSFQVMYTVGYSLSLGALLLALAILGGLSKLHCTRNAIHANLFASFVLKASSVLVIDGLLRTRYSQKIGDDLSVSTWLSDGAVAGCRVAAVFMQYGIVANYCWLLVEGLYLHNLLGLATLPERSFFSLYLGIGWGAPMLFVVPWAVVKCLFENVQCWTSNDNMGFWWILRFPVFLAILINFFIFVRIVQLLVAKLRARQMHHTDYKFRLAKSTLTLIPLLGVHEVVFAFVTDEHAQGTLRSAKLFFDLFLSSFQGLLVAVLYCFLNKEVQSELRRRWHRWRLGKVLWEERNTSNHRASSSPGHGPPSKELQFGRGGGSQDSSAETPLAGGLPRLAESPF
Chain of GLP-1 Receptor (P43220 24-463, species assumed): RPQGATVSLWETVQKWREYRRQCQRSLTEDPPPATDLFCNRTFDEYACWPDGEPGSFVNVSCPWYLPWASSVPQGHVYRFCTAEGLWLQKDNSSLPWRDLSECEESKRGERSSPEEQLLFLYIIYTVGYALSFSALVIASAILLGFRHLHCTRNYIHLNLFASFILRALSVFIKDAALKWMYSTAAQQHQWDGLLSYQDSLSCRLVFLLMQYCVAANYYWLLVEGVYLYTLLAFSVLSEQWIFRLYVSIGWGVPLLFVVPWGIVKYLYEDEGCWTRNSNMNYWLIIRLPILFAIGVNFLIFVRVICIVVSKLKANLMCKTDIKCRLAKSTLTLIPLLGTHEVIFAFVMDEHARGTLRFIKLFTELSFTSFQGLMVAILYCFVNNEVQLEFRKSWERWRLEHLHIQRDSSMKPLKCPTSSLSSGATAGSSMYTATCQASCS

HSQGTFTSDYSRYLDSRRAQDFVQWLMNK [Glucagon R12 K29]
EC50 [1]: 0.41 ± 0.24 nM | EC50 [2]: 0.81 ± 0.49 nM

Glucagon Cys^17 Mal-PEG-5K [Glucagon, Cys17PEG5K]
Percent Soluble [3]: 94%

Glucagon Cys^24 Maleimido, PEG-3.4K-dimer [Glucagon C24 Dimer]
EC50 ([2]; read-out: cAMP Induction Glucagon Receptor EC50, Table 3 (pegylated analogs), HEK293 cells co-transfected with glucagon receptor and CRE-luciferase, 5 h at 37° C.): 0.1 ± 0.05 nM

HSQGTFTSDYSRYLDSRRAKDFVQWLMNT [Glucagon R12 K20]
EC50 [2]: 0.84 ± 0.4 nM
